Measured values published in PubChem BioAssay (NCI).
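Assay format: 96-well plates, 48-hour exposure. Abbreviation: GI50, concentration required for 50% inhibition of growth. TGI: concentration producing complete growth inhibition.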

Legend:
Experiment in all cases: growth of human tumour cells (NCI), 48 h
MDA-MB-231 breast = tested on: MDA-MB-231 breast
MCF7 breast = tested on: MCF7 breast
PC-3 prostate = tested on: PC-3 prostate
DU-145 prostate = tested on: DU-145 prostate
T-47D breast = tested on: T-47D breast
XF 498 CNS = tested on: XF 498 CNS
KM20L2 colon = tested on: KM20L2 colon
HOP-18 NSCLC = tested on: HOP-18 NSCLC
DMS 273 small cell lung = tested on: DMS 273 small cell lung
LXFL 529 NSCLC = tested on: LXFL 529 NSCLC

Compound	GI50 (MDA-MB-231 breast) [µM]	TGI (MDA-MB-231 breast) [µM]	GI50 (MCF7 breast) [µM]	TGI (MCF7 breast) [µM]	GI50 (PC-3 prostate) [µM]	TGI (PC-3 prostate) [µM]	TGI (DU-145 prostate) [µM]	TGI (T-47D breast) [µM]	GI50 (DU-145 prostate) [µM]	GI50 (T-47D breast) [µM]	TGI (XF 498 CNS) [µM]	TGI (KM20L2 colon) [µM]	TGI (HOP-18 NSCLC) [µM]	TGI (DMS 273 small cell lung) [µM]	TGI (LXFL 529 NSCLC) [µM]	GI50 (KM20L2 colon) [µM]	GI50 (HOP-18 NSCLC) [µM]	GI50 (LXFL 529 NSCLC) [nM]	GI50 (DMS 273 small cell lung) [µM]
NC(N)=N/N=C/c1c(-c2cc(Cl)sc2Cl)nc2n1CCS2	7.64	15.6	10.6	25.3	8.2	15.2													
O=C1Cc2c(-c3ccccc3)cc(-c3cccc(Cl)c3)nc2-c2ccccc2N1		5.49		> 22.6		23.2	11.8	6.01											
CCN(CC)C(=S)SSC1CCCCC1	17.3	37.1	14.4	30.4	17.8	42.6	45.5	66.4	20.3	22.2									
C=C1C(=O)O[C@H]2[C@H]1CC/C(COC(=O)c1ccc(C(=O)O)s1)=C\CC[C@@]1(C)O[C@@H]21	1.6	3.06			2.9	11.4	3.13	5.53	1.59	2.22									
CC(C)(C)N=CN1CCC(C(c2ccccc2)c2ccccc2)CC1											> 100	32.2	> 100	> 100					
Cc1ccc(S(=O)(=O)NCCN2c3nc4ccccc4cc3Sc3cc4ccccc4nc32)cc1	4.61	> 100	> 100	> 100			> 100	> 100	> 100	4.54									
CN(C)CN1C(=O)S/C(=C2\C(=O)N(CN(C)C)c3ccccc32)C1=O		> 100		> 100		> 100	> 100	> 100											
C=C1C(O)C2C(=C(CC(C)C)C13CC3)C(=O)C(C)(C)C2OC (centres undefined)	> 100	> 100	> 100	> 100	> 100	> 100	> 100	> 100	> 100	> 100									
N#C/C(=C(\O)C(=O)O)c1ccc(-c2cccc3ccccc23)cc1		> 100		> 100		> 100	> 100	> 100											
OCC1OC(N2C=C(c3nc4ccccc4s3)C3C=CC=CC32)C(O)C1O (centres undefined)	11.3	30.2	5.95	> 50	8.59	42.4	25.8		8.2										
c1cc(-c2sc(-c3ccncc3)c(-c3ccncc3)c2-c2ccncc2)ccn1		31.2		52		57.4	76	> 100											
O=S(=O)(O)c1ccc2cc(N=Nc3cc(S(=O)(=O)O)c4cccnc4c3O)ccc2c1		> 100		> 100		> 100	> 100	> 100											
CC/C=C\C[C@H](O)C/C=C1/C(=O)C=C[C@@H]1C/C=C\CCCC(N)=O	4.2	15.2	0.626	11.7	2.15	5.36	11	15.3	2.5	3.14									
CC1(C)OC2C(=O)OC(COCc3ccccc3)C2O1 (centres undefined)												> 100	> 100	> 100	> 100				
Nc1ncnc2c1ncn2C1OC(C(=O)O)C(O)C1O (centres undefined)		> 100		> 100		> 100	> 100	> 100											
O=C(O)C(Cc1ccc(O)c([N+](=O)[O-])c1)N1C(=O)c2ccccc2C1=O (centres undefined)		> 100		> 100		> 100	> 100	> 100											
Nc1ccc2c(c1)[O][Sn]([c]1ccccc1)([c]1ccccc1)[O]C2=O	5.11	11.6	3.95	8.52	12.4	24.9	28.9		15.5			31.9	29	31.1	3.12	18	15.6	1510	16.6
O=C(N/N=C/c1ccc(F)cc1)c1[nH]c2ccc(I)cc2c1-c1ccccc1	1.34	6.82	0.339	18.6	0.541	> 86.4	2.46		0.479										
O=C1c2cccc3cc([N+](=O)[O-])cc(c23)C(=O)N1CCCN1CCN(CCCN2C(=O)c3cccc4cc([N+](=O)[O-])cc(c34)C2=O)CC1											4.06	> 100	7.81		> 100				
CC1(C)C(=O)/C(=C\c2ccco2)C[C@]2(C)[C@H]3CC=C4[C@@H]5C[C@](C)(C(=O)O)CC[C@]5(C)CC[C@@]4(C)[C@]3(C)CC[C@@H]12	14.1	31.6	5.42	26.2	3.93	23.1	24.2	35.1	9.87	5.66									
CCCCc1cc(O)ccc1O	15.1	> 100	40.4	> 100	10.5	> 100	> 100	67.5	80.7	15.9									
NC(=O)c1ccccc1NC(=O)C(=O)C(c1cnc2ccc([N+](=O)[O-])cc2n1)[N+](=O)[O-] (centres undefined)		> 100		> 100		> 100		> 100											
COc1cc2ccc3c4cc(OC)c(OCc5ccccc5)cc4cnc3c2cc1OC											> 100	> 100			> 100				
COc1cccc2c1C1=CC(=O)CCC1C(C)(C)O2 (centres undefined)												> 100	> 100	> 100	> 100				
CCc1ccc(C2=C(O)C(=O)C(c3ccc(CC)cc3)=C(O)C2=O)cc1	2.53	11	1.83	5.05	2.17	7.95	10.6	6.65	2.81	1.9									
CCOC(=O)C(=O)Nc1c(C)cccc1CC											> 100	> 100	> 100		> 100				
CCOC(=O)/C=C/c1ccc(C(=O)OCC)[nH]1	13.7	> 100	3.06	> 100	4.7	> 100	19.6	> 100	3.41	6.32									
COc1cc(C(C#N)NNC(=O)c2ccccc2O)ccc1O (centres undefined)												> 100	97.9		> 100				
